Laboratory results: patent US8362066B2, “Compounds and methods for treating protein folding disorders” (Treventis Corporation, priority 2006, dated 2013)
One block for each compound: values may come before it.

How the values were obtained:
Aβ1-40 [1] = target: T1, Aβ1-40 (Homo sapiens, UniProt P05067); assay: ThT fluorescence assay, inhibition of Aβ1-40 aggregation; type: biochemical
T1 construct: Both Aβ1-40 and Aβ1-42 were purchased from Anaspec; purchased Anaspec
Description: The compounds of the invention were evaluated for activity against Aβ aggregation in a kinetic thioflavin T (ThT) fluorescence assay similar to that of Chalifour, R. J., et al., J. Biol. Chem. (2003) 278: 34874-81. IC50 values for inhibition of Aβ1-40 aggregation in the ThT fluorescence assay for a number compounds of the present invention were determined. Values were calculated by solving the equation y=(m2)/(1+(x/m3)^m4) where y is percent aggregation, x is compound concentration, and m3 is the concentration giving 50% aggregation (i.e. IC50), using KaleidaGraph 4.0 (Synergy Software). Dye-binding ThT/ThS protein aggregation assays for Aβ, tau and α-synuclein were performed as described in Example 8 of US2007/0015813.

α-synuclein = α-synuclein (Homo sapiens, UniProt P37840); assay: ThT fluorescence assay, α-synuclein aggregation; type: biochemical; details: α-synuclein 4 μM, 96 hours, 37° C.
Description: (§1) The following procedures were used. The compounds were examined by circular dichroism (CD) to confirm their anti-amyloidogenic activity and were further evaluated for inhibition of both tau and α-synuclein aggregation in Thioflavin S (ThS) and ThT dye-binding fluorescence assays, respectively. The compounds were also evaluated in a MTT [3-(4,5-dimethylthiazol-2-yl)-2,5-diphenyltetrazolium bromide] cell viability assay (Kaneko, I., et al., J. Neurochem. (1995) 65: 2585-93). Pharmacokinetic (PK) testing was also performed. Compounds administered to mice (IP or PO dosing) had no toxicity at doses up to 300 mg/kg and were present in brain more than four hours after administration.
(§2) Dye-binding ThT/ThS protein aggregation assays for Aβ, tau and α-synuclein were performed as described in Example 8 of US2007/0015813.

Aβ1-40 [2] = target: T1, Aβ1-40; assay: Tris-tricine SDS-PAGE, Aβ1-40 self-assembly following ThT aggregation assay; type: biochemical; details: FIG. 9
Description: (§3) Pre-cast polyacrylamide gels were purchased from NuSep (10-20% Tris-tricine-SDS). These were chosen for their large separation range of 2.5 to 205 kDa. Molecular weight markers were purchased from Sigma Aldrich and diluted twenty fold for individual use. Three buffers were used for this technique: 1) Sample buffer (1.25 mL 0.5 M Tris-HCl (pH 6.8), 2.5 mL glycerol, 2.0 mL 10% SDS, 0.2 mL 0.5% bromophenol blue, 3.55 mL distilled water) which was used as the leading band in the gel. 2) Cathode Buffer (12.11 g tris base, 17.92 g tricine, 1 g SDS, diluted to 1 L with distilled water) which was the inner buffer in the tank assembly. 3) Anode Buffer (5× concentrated: 121.1 g tris base in 1 L of distilled water, pH 8.9 adjusted with concentrated HCl) which was the outer buffer and loaded at 1× concentration. Both Aβ1-40 and Aβ1-42 were purchased from Anaspec.
(§4) Five solutions were required to stain the gels using the silver stain protocol: 1) Fixer 1 (40% methanol, 10% acetic acid, diluted to 1 L with Millie-Q water) 2) Fixer 2 (45 g anhydrous sodium acetate, 300 mL methanol, 5 mL 25% glutaraldehyde, diluted to 1 L with Millie-Q water), 3) a) Silver stain A (15 mL of 25% ammonia solution, 0.8 g sodium hydroxide, diluted to 950 mL with Millie Q water). b) Silver stain B (6 g of silver nitrate in 50 mL Millie Q water). Solution B was then slowly added to solution A. 4) Developer (0.1 g citric acid, 1 mL formaldehyde, diluted to 1 L with Millie-Q water), 5) Stop solution (50 mL acetic acid, diluted to 1 L with Millie-Q water).
(§5) Following a ThT (Aβ1-40) or ThS (Tau 441) aggregation assay, described in Example 8 of US2007/0015813, samples were immediately aspirated and stored in centrifuge tubes. 10 μL of each sample was transferred to a microfuge tube and diluted 1:1 with sample buffer before being incubated (37° C.) for 30 minutes and loaded in the precast gels (15 μL in each well). The gel was then run at 100 V for approximately one hour or until the leading band reached the bottom of the gel.
(§6) Once the gel had finished running, it was removed from its plastic case and placed in a tray for staining. Approximately 200-250 mL volume was used for all the solutions. The gel was first washed with distilled water briefly to rinse off the excess buffer from the tank. It was then immersed in Fixer 1 for 30 minutes. followed by Fixer 2 for 30 minutes. Once the gel was fixed it then underwent three water washes at 10 minutes per wash. After the water washes, the gel was stained for 30 minutes using the silver stain solution. Excess stain was removed using three four-minute water washes. The gel was then immersed in the developer solution to visualize the stain. This took place for approximately 5 minutes or until the desired intensity was reached. To immediately stop the developing process the gel was placed in the stop solution for 10 minutes.

Aβ1-40 [3] = target: T1, Aβ1-40; assay: TEM of Aβ1-40 fibrils; type: biochemical; details: Aβ1-40 20 μM
Description: (§7) A modified version of the procedure of Cohen et al. (Biochemistry 2006, 45: 4727-35) was followed for TEM analysis. Uranylacetate was used as negative stain (Electron Microscopy Sciences) and was made as a 3% solution and stored at 5° C. in the dark to reduce photodecay. Aspirated samples from ThT (Aβ1-40) and ThS (Tau 441) aggregation assays, or Aβ1-42 incubated (37° C.) for 30 min. in the presence and absence of compounds were used in the TEM analyses. Samples were carefully loaded on Formvar-coated 400 mesh copper grids (Electron Microscopy Sciences) as a 10 μL drop. After sitting for 60 seconds, excess fluid was gently dabbed off with filter paper. Next, the 3% uranylacetate was added as a drop onto the grid and left to stand for another 60 seconds. The excess fluid was again dabbed off by filter paper. Samples were left to dry for at least 30 minutes prior to being viewed on an electron microscope operating at 80 kV.

Tau 441 [4] = target: T2, Tau 441 (Homo sapiens, UniProt P10636); assay: Tris-tricine SDS-PAGE, Tau 441 self-assembly following ThS aggregation assay; type: biochemical; details: FIG. 10; for effect on Tau 441 self-assembly, monomer fragmentation (SDS-PAGE): relative to control
T2 sequence (P10636 1-441 isoform P10636-8): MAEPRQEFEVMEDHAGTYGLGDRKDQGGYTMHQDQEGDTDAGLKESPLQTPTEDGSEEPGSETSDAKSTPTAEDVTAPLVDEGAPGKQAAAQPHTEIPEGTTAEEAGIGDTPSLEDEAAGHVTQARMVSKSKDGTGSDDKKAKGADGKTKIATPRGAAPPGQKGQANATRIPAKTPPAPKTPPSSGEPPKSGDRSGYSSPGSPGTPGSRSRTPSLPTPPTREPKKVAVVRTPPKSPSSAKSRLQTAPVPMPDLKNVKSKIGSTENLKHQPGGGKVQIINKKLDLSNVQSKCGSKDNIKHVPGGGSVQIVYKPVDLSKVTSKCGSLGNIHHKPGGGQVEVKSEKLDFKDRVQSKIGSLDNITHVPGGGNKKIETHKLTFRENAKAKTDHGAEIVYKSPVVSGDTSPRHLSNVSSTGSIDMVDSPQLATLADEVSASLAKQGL
Description: as §3, §4, §5, §6

Tau 441 [5] = target: T2, Tau 441; assay: ThS fluorescence assay, Tau 441 aggregation; type: biochemical; details: Tau 441 6 μM; compound 50 μM and 10 μM; 24 hours, 37° C., FIG. 15
Description: as §1, §2

Tau 441 [6] = target: T2, Tau 441; assay: TEM of Tau 441 fibrils following ThS aggregation assay; type: biochemical; details: Tau 441 6 μM, compound 20 μM, FIG. 14
Description: as §7

[7] = tested on: SH-SY5Y neuroblastoma cells; assay: MTT cell viability assay, protection from Aβ40; type: cell-based; details: Aβ40 20 μM
Description: The assay was based on that reported by Conte and co-workers (Conte, A., Pellegrini, s. & Tagliazucchi, D. 2Q03. Brain Res. Bull. 62, 29-38). Briefly, Aβ1-40 (1.0 mg) was dissolved directly in Tris base ([…], […], pH approximately 10). The pH was dropped to 7.4 using concentrated HCl and the solution diluted ten-fold with growth medium consisting of Dulbecco's Modified Eagle Medium (high glucose) containing 10% fetal bovine serum. penicillin-G (10,000 units/mL) and streptomycin (10 mg/mL); giving 20 μM Aβ40. For non-Aβ-containing controls. growth medium was diluted 10% with Tris buffer (20 mM, pH 7.4). SH-SY5Y neuroblastoma cells were seeded at approximately 20,000 cells per well in a covered 96-well clear polystyrene plate and incubated at 37° C., 5% CO2 for 24 h. After discarding supernatant, growth medium (200 μL), containing either Aβ3-40 or vehicle (controls), was added to the wells, followed by test compound in DMSO (0.5 μL) or DMSO alone (controls). Incubations all had 5 or more replicates. After incubating for 6-10 h (37° C., 5% C02), the dye 3-(4,5-dimethylthiazol-2-yl)-2,5-diphenyltetrazolium bromide (MTT, 20 microL. 5 mg/mL in PBS) was added to each well and the plate incubated for another 2 h. Medium was discarded and the formazan product dissolved by adding DMSO (100 μL) and shaking. Absorbance was measured at 540 nm in a Tecan Genios microplate reader.

[8] = compound 100 μM and 20 μM, FIG. 16
[9] = compound 50 μM and 10 μM, FIG. 17

T1 sequence (P05067 672-711 limits assumed): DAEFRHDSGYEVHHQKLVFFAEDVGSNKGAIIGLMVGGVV

Compound: N#Cc1ccc2[nH]cc(-c3c[nH]c4ccc(O)cc34)c2c1 [QR-0276]
IC50 (Aβ1-40 [1]): 16.5 µM | effect on distribution of Aβ1-40 among states of assembly / monomer (SDS-PAGE) (Aβ1-40 [2]): little effect

Compound: Oc1ccc(C=Cc2cc(O)cc(O)c2)cc1 [resveratrol, reference compound]
inhibition of α-synuclein aggregation (ThT fluorescence) (α-synuclein; [8]): showed inhibition

Compound: O=C(O)c1ccc2[nH]cc(-c3c[nH]c4ccc(O)cc34)c2c1 [QR-0142]
effect on distribution of Aβ1-40 among states of assembly / monomer (SDS-PAGE) (Aβ1-40 [2]): increase in the concentration of Aβ1-40 monomer

Compound: COc1c(C(=O)O)cc2cc(-c3ccc4c(c3)OCCO4)ccc2c1Br [QR-0282, 4-Bromo-7-(2,3-dihydrobenzo[b][1,4]dioxin-7-yl)-3-methoxynaphthalene-2-carboxylic acid]
Aβ1-40 dimer band (SDS-PAGE) (Aβ1-40 [2]): appearance of a dimer band | effect on distribution of Aβ1-40 among states of assembly / monomer (SDS-PAGE) (Aβ1-40 [2]): increase in the concentration of Aβ1-40 monomer

Compound: O=C(O)c1cccc2c(-c3c[nH]c4ccccc34)c[nH]c12 [QR-0112]
IC50 (Aβ1-40 [1]): 34.4 µM | % cell viability, protection from Aβ40 ([7]; 50 μM compound): significantly protective | % cell viability, protection from Aβ40 ([7]; 2 and 10 μM compound): trends towards protection | Aβ1-40 fibril formation (TEM) (Aβ1-40 [3]; compound 20 μM, following ThT aggregation assay, FIG. 11): increase in fibril formation but of a different morphology | effect on distribution of Aβ1-40 among states of assembly / monomer (SDS-PAGE) (Aβ1-40 [2]): increase in the concentration of Aβ1-40 monomer

Compound: Oc1ccc2[nH]cc(-c3c[nH]c4ncccc34)c2c1 [QR-0161]
% cell viability, protection from Aβ40 ([7]; 20 and 50 μM compound): significantly active

Continued, in another order:

IC50 (Aβ1-40 [1]): 1.99 µM | inhibition of α-synuclein aggregation (ThT fluorescence) (α-synuclein; [8]): showed inhibition
Compound: O=C(O)c1ccc2[nH]cc(-c3c[nH]c4cccc(O)c34)c2c1 [QR-0176]

IC50 (Aβ1-40 [1]): 1.93 µM | Aβ1-40 fibrils (TEM) (Aβ1-40 [3]; absence of ThT, compound at 20, FIG. 12): reduction in fibrils | Tau 441 dimer and trimer bands (SDS-PAGE) (Tau 441 [4]): appearance of dimer and trimer bands | inhibition of Tau 441 aggregation (ThS fluorescence) (Tau 441 [5]): greatly inhibited
Compound: O=C(O)c1cc2cc(-c3ccc4cc(O)ccc4c3)ccc2c(Br)c1O [QR-0263, 4-bromo-3-hydroxy-7-(2-hydroxynaphthalen-6-yl)naphthalene-2-carboxylic acid]
effect on Tau 441 self-assembly, monomer fragmentation (SDS-PAGE) (Tau 441 [4]): decreased fragmentation of tau 441 monomer

IC50 (Aβ1-40 [1]): 3 µM | inhibition of α-synuclein aggregation (ThT fluorescence) (α-synuclein; [9]): showed inhibition
Compound: Oc1cc2ccccc2c(-c2cc3ccccc3o2)c1O [QR-0164, 2-(2,3-Dihydroxynaphthalen-1-yl)-benzofuran]

IC50 (Aβ1-40 [1]): 4.4 µM | Tau 441 fibril formation (TEM) (Tau 441 [6]): increase in fibril formation | effect on Tau 441 self-assembly, monomer fragmentation (SDS-PAGE) (Tau 441 [4]): no clear effect | inhibition of Tau 441 aggregation (ThS fluorescence) (Tau 441 [5]): only moderately inhibited
Compound: COc1ccc2cc(-c3c[nH]c4c(C(=O)O)cccc34)ccc2c1 [QR-0262, 3-(2-Methoxynaphthalen-6-yl)-1H-indole-7-carboxylic acid]
Tau 441 assemblies seen (TEM) (Tau 441 [6]): spherical assemblies that were not present in the control

IC50 (Aβ1-40 [1]): 19 µM | inhibition of α-synuclein aggregation (ThT fluorescence) (α-synuclein; [8]): showed inhibition
Compound: Oc1cc2ccccc2c(-c2c[nH]c3ccccc23)c1O [QR-0189]

IC50 (Aβ1-40 [1]): 5.6 µM | Tau 441 dimer and trimer bands (SDS-PAGE) (Tau 441 [4]): appearance of dimer and trimer bands | inhibition of Tau 441 aggregation (ThS fluorescence) (Tau 441 [5]): greatly inhibited
Compound: O=C(O)c1cc2cc(-c3cc4ccccc4o3)ccc2c(Br)c1O [QR-0244, 7-(Benzofuran-2-y)-4-bromo-3-hydroxynaphthalene-2-carboxylic acid]
effect on Tau 441 self-assembly, monomer fragmentation (SDS-PAGE) (Tau 441 [4]): decreased fragmentation of tau 441 monomer

IC50 (Aβ1-40 [1]): 8.2 µM | inhibition of α-synuclein aggregation (ThT fluorescence) (α-synuclein; [8]): showed inhibition
Compound: Oc1ccc2[nH]cc(-c3c(O)c(O)cc4ccccc34)c2c1 [QR-0212, 5-hydroxy-3-(2,3-dihydroxyynathalen-1-yl)-1H-indole]

IC50 (Aβ1-40 [1]): 17.5 µM | inhibition of α-synuclein aggregation (ThT fluorescence) (α-synuclein; [9]): showed inhibition
Compound: O=C(O)c1ccc2c(c1)c(-c1ccc3cc(O)ccc3c1)cn2Cc1ccccc1 [QR-0162, 1-Benzyl-3-(6-hydroxynaphthalen-2-yl)-indole-5-carboxylic acid]

IC50 (Aβ1-40 [1]): 4.6 µM | Tau 441 fibril formation (TEM) (Tau 441 [6]): increase in fibril formation | Tau 441 dimer and trimer bands (SDS-PAGE) (Tau 441 [4]): appearance of dimer and trimer bands | inhibition of Tau 441 aggregation (ThS fluorescence) (Tau 441 [5]): greatly inhibited
Compound: O=C(O)c1cc2cc(-c3ccc4c(c3)OCCO4)ccc2c(Br)c1O [QR-0281, 4-Bromo-7-(2,3-dihydrobenzo[b][1,4]dioxin-7-yl)-3-hydroxyynaphthalene-2-carboxylic acid]
Tau 441 assemblies seen (TEM) (Tau 441 [6]): spherical assemblies that were not present in the control | effect on Tau 441 self-assembly, monomer fragmentation (SDS-PAGE) (Tau 441 [4]): decreased fragmentation of tau 441 monomer
